Experimental data from ChEMBL document CHEMBL2407046, “Synthesis of 2α-heteroarylalkyl active vitamin d3 with therapeutic effect on enhancing bone mineral density in vivo” (ACS Med Chem Lett, 2013).
Each block holds one compound with its values, some of them ahead of it.

Key:
[1] = test system: Rattus norvegicus; test: Toxicity in ovariectomized Sprague-Dawley rat osteoporosis model assessed as increase in serum Ca level at 0.02 mg/kg/day administered 5 times a week for 4 weeks measured 24 hrs post last dose (reference value: 9.25 +/- 0.11 mg/dL); assay type: organism-based; settings: in vivo
[2] = test system: Rattus norvegicus; test: Toxicity in ovariectomized Sprague-Dawley rat osteoporosis model assessed as increase in serum Ca level at 0.007 mg/kg/day administered 5 times a week for 4 weeks measured 24 hrs post last dose (reference value: 9.25 +/- 0.11 mg/dL); assay type: organism-based; settings: in vivo
[3] = test system: Rattus norvegicus; test: Antiosteoporotic activity in ovariectomized Sprague-Dawley rat osteoporosis model assessed as increase in bone mineral density in spine at 0.02 mg/kg/day administered 5 times a week for 4 weeks measured 24 hrs post last dose by dual X-ray absorption meter (reference value: 0.209 +/- 0.011 g/cm'2); assay type: functional
[4] = test system: Rattus norvegicus; test: Antiosteoporotic activity in ovariectomized Sprague-Dawley rat osteoporosis model assessed as increase in bone mineral density in spine at 0.007 mg/kg/day administered 5 times a week for 4 weeks measured 24 hrs post last dose by dual X-ray absorption meter (reference value: 0.209 +/- 0.011 g/cm'2); assay type: functional
[5] = target: T1, Vitamin D3 receptor (Homo sapiens, UniProt P11473); test: Transactivation of VDR-mediated osteocalcin promoter in human HOS/SF cells after 24 hrs by luciferase reporter gene assay; assay type: cell-based
T1 sequence (P11473 whole entry): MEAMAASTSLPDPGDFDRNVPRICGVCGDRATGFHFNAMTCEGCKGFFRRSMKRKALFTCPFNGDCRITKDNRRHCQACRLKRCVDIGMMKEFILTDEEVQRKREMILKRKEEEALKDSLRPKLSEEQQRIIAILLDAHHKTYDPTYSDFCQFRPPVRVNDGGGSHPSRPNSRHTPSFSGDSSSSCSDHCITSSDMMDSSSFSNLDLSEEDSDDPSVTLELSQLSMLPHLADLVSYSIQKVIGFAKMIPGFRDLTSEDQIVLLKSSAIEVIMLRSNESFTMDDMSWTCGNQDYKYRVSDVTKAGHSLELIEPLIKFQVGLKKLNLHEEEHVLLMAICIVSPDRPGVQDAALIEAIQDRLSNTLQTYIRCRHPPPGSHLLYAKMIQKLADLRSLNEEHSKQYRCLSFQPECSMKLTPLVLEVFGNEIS

[6] = test system: Rattus norvegicus; test: Toxicity in ovariectomized Sprague-Dawley rat osteoporosis model assessed as increase in serum Ca level at 0.1 mg/kg/day administered 5 times a week for 4 weeks measured 24 hrs post last dose (reference value: 9.14 +/- 0.24 mg/dL); assay type: organism-based; settings: in vivo
[7] = test system: Rattus norvegicus; test: Toxicity in ovariectomized Sprague-Dawley rat osteoporosis model assessed as increase in serum Ca level at 0.025 mg/kg/day administered 5 times a week for 4 weeks measured 24 hrs post last dose (reference value: 9.14 +/- 0.24 mg/dL); assay type: organism-based; settings: in vivo
[8] = test system: Rattus norvegicus; test: Antiosteoporotic activity in ovariectomized Sprague-Dawley rat osteoporosis model assessed as increase in bone mineral density in spine at 0.1 mg/kg/day administered 5 times a week for 4 weeks measured 24 hrs post last dose by dual X-ray absorption meter (reference value: 0.209 +/- 0.019 g/cm'2); assay type: functional
[9] = test system: Rattus norvegicus; test: Antiosteoporotic activity in ovariectomized Sprague-Dawley rat osteoporosis model assessed as increase in bone mineral density in spine at 0.025 mg/kg/day administered 5 times a week for 4 weeks measured 24 hrs post last dose by dual X-ray absorption meter (reference value: 0.209 +/- 0.019 g/cm'2); assay type: functional

- EC50 [5]: 0.01 nM
SMILES: C=C1/C(=C\C=C2/CCC[C@]3(C)[C@@H]([C@H](C)CCCC(C)(C)O)CC[C@@H]23)C[C@@H](O)[C@H](CCn2ncnn2)[C@@H]1O
- Activity [1]: 9.66 mg/dL
- Activity [2]: 9.41 mg/dL
- Activity [3]: 0.223 g/cm2
- Activity [4]: 0.214 g/cm2

- EC50 [5]: 0.29 nM
SMILES: C=C1/C(=C\C=C2/CCC[C@]3(C)[C@@H]([C@H](C)CCCC(C)(C)O)CC[C@@H]23)C[C@@H](O)[C@H](CCn2cnnn2)[C@@H]1O

- EC50 [5]: 0.15 nM
SMILES: C=C1/C(=C\C=C2/CCC[C@]3(C)[C@@H]([C@H](C)CCCC(C)(C)O)CC[C@@H]23)C[C@@H](O)[C@H](CCn2cncn2)[C@@H]1O

- EC50 [5]: 0.044 nM
SMILES: C=C1/C(=C\C=C2/CCC[C@]3(C)[C@@H]([C@H](C)CCCC(C)(C)O)CC[C@@H]23)C[C@@H](O)[C@H](CCn2nccn2)[C@@H]1O

- EC50 [5]: 0.21 nM
SMILES: C=C1/C(=C\C=C2/CCC[C@]3(C)[C@@H]([C@H](C)CCCC(C)(C)O)CC[C@@H]23)C[C@@H](O)[C@H](CCn2ccnn2)[C@@H]1O

- EC50 [5]: 0.68 nM
SMILES: C=C1/C(=C\C=C2/CCC[C@]3(C)[C@@H]([C@H](C)CCCC(C)(C)O)CC[C@@H]23)C[C@@H](O)[C@H](CCn2ccnc2)[C@@H]1O

SMILES: C=C1/C(=C\C=C2/CCC[C@]3(C)[C@@H]([C@H](C)CCCC(C)(C)O)CC[C@@H]23)C[C@@H](O)C[C@@H]1O [CALCITRIOL]
- Activity [6]: 10.35 mg/dL
- Activity [7]: 10.14 mg/dL
- Activity [8]: 0.228 g/cm2
- Activity [9]: 0.218 g/cm2
